Patent US20250197428A1, “INHIBITORS OF KIF18A AND USES THEREOF” (ACCENT THERAPEUTICS, INC., priority 2022, published 2025)
Read-outs that look alike come from different tables or passages of the source.

Legend:
KIF18A = KIF18A (Homo sapiens (Human), UniProt Q8NI77); assay: KIF18A Biochemical Assay (ATPase, ADP-Glo)
OVCAR-3 cells = assay: In vitro anti-proliferative activity assay in cancer cell line OVCAR-3 (CellTiter-Glo, 4- or 7-day); type: cell-based; settings: Homo sapiens, read-out: OVCAR-3 cellular antiproliferation assay IC50
[1] = Caco-2 permeation assay, bidirectional permeability; type: in vitro ADME; settings: human, Caco-2, pH 7.4, 5 μM, Papp(B-A)/Papp(A-B)
Procedure: 1. Caco-2 Permeation Assay: Evaluation of the Bidirectional Permeabilities of Compounds.
Samples were analyzed through LC/MS/MS for estimating the apparent permeability coefficients (Papp) of compounds across Caco-2 cell monolayers. Caco-2 cells (American Type Culture Collection) were incubated and seeded onto HTS Transwell-96 Well Permeable Supports (Corning Corporation) for 14 days using a cell medium consisting of Dulbecco's Modified Eagle's Medium (DMEM) with high glucose and L-glutamine supplemented with 10% FBS, 1× penicillin-streptomycin mixture and 1×non-essential amino acids (NEAA). Cell monolayer integrity was measured using an automated tissue resistance measuring system (World Precision Instruments). Stock solutions of compounds and control compounds in DMSO were diluted with HBSS (10 mM HEPES, pH 7.4) to reach a final concentration of 5 μM with a final concentration of DMSO <0.1%. HBSS was then removed after 30 minutes of preincubation, and 75 μL of test compound was added to the apical compartment of the Transwell insert. The basolateral compartment was filled with 235 μL of HBSS (10 mM HEPES, pH 7.4) containing 2% BSA. Rate of drug transport in the basolateral to apical direction was obtained by adding 235 μL of test compound to the receiver plate wells (basolateral compartment) and filling with 75 μL of HBSS (10 mM HEPES, pH 7.4) containing 2% BSA. Time 0 samples were prepared by transferring 25 μL of 5 μM working solution to wells of the 96-deepwell plate containing 25 μL HBSS (10 mM HEPES and 2% BSA, pH 7.4), followed by the addition 200 μL of cold methanol containing appropriate internal standards (100 nM alprazolam, 200 nM labetalol, 200 nM caffeine and 200 nM diclofenac). After incubating at 37° C. for 2 h, 25 μL samples from donor sides (apical compartment) were transferred to a 96-well plate containing 25 μL HBSS (10 mM HEPES and 2% BSA, pH 7.4). 25 μL samples from receiver sides (basolateral compartment) were removed and transferred to a new plate containing 25 μL HBSS (10 mM HEPES, pH 7.4). 200 μL of cold methanol containing internal standards (100 nM alprazolam, 200 nM labetalol, 200 nM caffeine and 200 nM diclofenac) was added to terminate the reaction. Samples were vortexed for 5 minutes and then centrifuged at 3,220 g for 40 minutes. An aliquot of 100 μL of the supernatant is mixed with 100 μL of ultra-pure water for LC-MS/MS analysis. All incubations are performed in duplicate. Solutions were discarded from the transwell plate. 100 μL Lucifer Yellow solution (100 μM in HBSS) was added to each well of transwell insert and 300 μL of HBSS to each well of receiver. After incubating at 37° C. for 30 minutes, 80 μL was aliquotted from each well of apical and basolateral sides to a solid black plate. The plate was then read with Tecan Infinite™ M 200 (Excitation/Emission wavelength […]).
All calculations were carried out using Microsoft Excel. Peak areas were determined from extracted ion chromatograms. The leakage of Lucifer Yellow, in unit of percentage (%), can be calculated using the following equation: […]
LY leakage of <1% is acceptable to indicate the well-qualified Caco-2 monolayers. The apparent permeability coefficient (Papp), in units of centimeter per second, can be calculated for Caco-2 drug transport assays using the following equation: […]
Where VA is the volume (in mL) in the receiver well (0.235 mL for Ap→Bl flux and 0.075 mL for Bl→Ap flux), Area is the surface area of the membrane (0.143 cm^2 for HTS Transwell-96 Well Permeable Supports), and time is the total transport time in seconds. The efflux ratio can be determined using the following equation: […]
Where Papp (B-A) indicates the apparent permeability coefficient in basolateral to apical direction, and Papp (A-B) indicates the apparent permeability coefficient in apical to basolateral direction.
The recovery can be determined using the following equation: […]

Chain of KIF18A (Q8NI77 1-367): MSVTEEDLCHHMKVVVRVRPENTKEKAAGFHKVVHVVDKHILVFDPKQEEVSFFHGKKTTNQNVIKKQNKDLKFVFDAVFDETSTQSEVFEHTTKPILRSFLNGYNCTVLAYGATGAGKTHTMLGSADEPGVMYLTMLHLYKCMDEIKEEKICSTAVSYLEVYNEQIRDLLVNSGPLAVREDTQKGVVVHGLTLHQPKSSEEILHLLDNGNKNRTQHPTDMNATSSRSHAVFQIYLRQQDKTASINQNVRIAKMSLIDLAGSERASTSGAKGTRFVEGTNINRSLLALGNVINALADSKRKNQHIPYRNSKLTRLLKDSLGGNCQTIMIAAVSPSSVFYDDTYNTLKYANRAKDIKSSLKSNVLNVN
Chain of KIF18A (P02550 whole entry partner): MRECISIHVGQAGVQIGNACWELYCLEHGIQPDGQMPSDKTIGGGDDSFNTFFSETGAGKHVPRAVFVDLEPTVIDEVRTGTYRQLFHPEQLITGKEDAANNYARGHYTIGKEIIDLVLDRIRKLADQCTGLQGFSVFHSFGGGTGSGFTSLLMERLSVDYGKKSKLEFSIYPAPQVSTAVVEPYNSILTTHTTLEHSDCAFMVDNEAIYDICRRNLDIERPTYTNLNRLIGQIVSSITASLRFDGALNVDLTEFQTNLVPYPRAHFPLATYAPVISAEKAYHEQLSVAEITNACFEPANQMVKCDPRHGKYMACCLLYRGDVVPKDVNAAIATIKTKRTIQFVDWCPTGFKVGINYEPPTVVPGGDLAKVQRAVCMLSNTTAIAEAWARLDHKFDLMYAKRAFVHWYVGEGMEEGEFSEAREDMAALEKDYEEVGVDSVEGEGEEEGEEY
Chain of KIF18A (P02554 whole entry partner): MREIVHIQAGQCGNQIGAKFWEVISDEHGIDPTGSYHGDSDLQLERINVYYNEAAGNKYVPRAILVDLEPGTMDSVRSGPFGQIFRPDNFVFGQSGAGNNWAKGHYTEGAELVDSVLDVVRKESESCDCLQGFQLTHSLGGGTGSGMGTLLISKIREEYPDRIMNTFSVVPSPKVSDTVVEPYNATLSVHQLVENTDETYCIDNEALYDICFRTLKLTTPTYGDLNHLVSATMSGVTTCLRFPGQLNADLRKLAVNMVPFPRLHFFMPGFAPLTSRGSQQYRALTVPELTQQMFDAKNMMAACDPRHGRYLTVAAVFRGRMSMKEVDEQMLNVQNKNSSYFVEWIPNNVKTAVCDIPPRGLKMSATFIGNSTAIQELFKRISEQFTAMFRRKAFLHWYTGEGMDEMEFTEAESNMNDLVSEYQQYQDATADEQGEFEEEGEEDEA

| Structure (SMILES) | IC50 (KIF18A) [nM] | efflux ratio at 2 h, 5 μM [1] | IC50 (OVCAR-3 cells; OVCAR-3, 168 h, 7-day assay) [nM] | IC50 (OVCAR-3 cells; OVCAR-3, 96 h, 4-day assay) [nM] |
| --- | --- | --- | --- | --- |
| C[Si]1(C)CCN(c2cc(NS(=O)(=O)CCO)ccc2C(=O)Nc2ccnc(N3CCC(F)(F)CC3)c2)CC1 [Example 7, N-(2-(4,4-difluoropiperidin-1-yl)pyridin-4-yl)-2-(4,4-dimethyl-1,4-azasilinan-1-yl)-4-((2-hydroxyethyl)sulfonamido)benzamide] | < 100 | ≥ 10 | – | < 100 |
| Cc1cc(NC(=O)c2ccc(NS(=O)(=O)CCO)cc2N2CC[Si](C)(C)CC2)nc(N2CCC(F)(F)CC2)c1 [Example 8, N-(6-(4,4-difluoropiperidin-1-yl)-4-methylpyridin-2-yl)-2-(4,4-dimethyl-1,4-azasilinan-1-yl)-4-((2-hydroxyethyl)sulfonamido)benzamide] | 100 to 500 | < 10 | – | < 100 |
| C[Si]1(C)CCN(c2cc(NS(=O)(=O)CCO)ccc2C(=O)Nc2ccnc(OCCC(F)(F)F)n2)CC1 [Example 10] | < 100 | ≥ 10 | – | 500 to 1000 |
| CC1CN(c2nccc(NC(=O)c3ccc(NS(=O)(=O)CCO)cc3N3CC[Si](C)(C)CC3)n2)CCO1 (stereo not drawn) [Example 11] | < 100 | < 10 | – | < 100 |
| O=C(Nc1ccnc(N2CCC(F)(F)CC2)n1)c1cc2cnn(CCO)c2cc1N1CCC2(CC1)CC2 [Example 12] | 500 to 1000 | < 10 | – | > 1000 |
| C[Si]1(C)CCN(c2cc(NS(=O)(=O)CCO)ccc2C(=O)Nc2cccc(OCCC(F)(F)F)n2)CC1 [Example 16] | < 100 | < 10 | – | < 100 |
| C[C@H]1CN(c2cccc(NC(=O)c3ccc(NS(=O)(=O)CCO)cc3N3CC[Si](C)(C)CC3)n2)CCO1 [Example 17] | < 100 | ≥ 10 | – | < 100 |
| Cc1cc(NC(=O)c2ccc(NS(C)(=O)=O)cc2N2CC[Si](C)(C)CC2)nc(N2CC(F)(F)C2)c1 [Example 20] | 100 to 500 | < 10 | – | 100 to 500 |
| Cc1cc(NC(=O)c2ccc(NS(=O)(=O)CCO)cc2N2CC[Si](C)(C)CC2)nc(N2CCC3(CC3)C2)n1 [Example 21] | 100 to 500 | < 10 | – | 100 to 500 |
| Cc1cc(NC(=O)c2ccc(NS(=O)(=O)CCO)cc2N2CCC3(C)C(C2)C3(F)F)nc(N2CCC(F)(F)CC2)n1 (stereo not drawn) [Example 28, 2-(7,7-difluoro-6-methyl-3-azabicyclo[4.1.0]heptan-3-yl)-N-(2-(4,4-difluoropiperidin-1-yl)-6-methylpyrimidin-4-yl)-4-((2-hydroxyethyl)sulfonamido)benzamide] | < 100 | < 10 | – | 100 to 500 |
| Cc1cc(NC(=O)c2ccc(NS(=O)(=O)CCO)cc2N2CCC3CC3C2)nc(N2CCC(F)(F)CC2)n1 (stereo not drawn) [Example 34] | < 100 | ≥ 10 | – | 100 to 500 |
| C[Si]1(C)CCN(c2cc(NS(=O)(=O)CCO)ccc2NC(=O)c2ccnc(OCCC(F)(F)F)n2)CC1 [Example 88] | 100 to 500 | < 10 | 500 to 1000 | – |
| CC(C)(C)NS(=O)(=O)c1cccc(NC(=O)c2ccc(NS(=O)(=O)CCO)cc2N2CC[Si](C)(C)CC2)n1 [Example 98] | < 100 | < 10 | – | < 100 |
| C[Si]1(C)CCN(c2cc(NS(=O)(=O)CCN)ccc2C(=O)Nc2cccc(N3CCC(F)(F)CC3)n2)CC1 [Example 100] | < 100 | < 10 | 100 to 500 | – |
| Cc1cc(NC(=O)c2ccc(NS(=O)(=O)CCO)cc2N2CC[Si](C)(C)CC2)nc(N2CCOC3(CC3)C2)n1 [Example 102] | < 100 | ≥ 10 | < 100 | – |
| CC(=O)NCCS(=O)(=O)Nc1ccc(C(=O)Nc2cccc(N3CCC(F)(F)CC3)n2)c(N2CC[Si](C)(C)CC2)c1 [Example 104] | < 100 | < 10 | 100 to 500 | – |

Second part, led by results:

| IC50 (KIF18A) [nM] | efflux ratio at 2 h, 5 μM [1] | IC50 (OVCAR-3 cells; OVCAR-3, 168 h, 7-day assay) [nM] | Structure (SMILES) | IC50 (OVCAR-3 cells; OVCAR-3, 96 h, 4-day assay) [nM] |
| --- | --- | --- | --- | --- |
| < 100 | < 10 | – | Cc1cc(NC(=O)c2ccc(NS(=O)(=O)CCO)cc2N2CC[C@]3(C)C[C@@H]3C2)nc(N2CCC(F)(F)CC2)n1 [Example 35] | 100 to 500 |
| < 100 | < 10 | – | Cc1cc(NC(=O)c2ccc(NS(=O)(=O)CCO)cc2N2CCC3(C)CC3C2)nc(N2CCC(F)(F)CC2)n1 (stereo not drawn) [Example 37] | < 100 |
| < 100 | ≥ 10 | – | Cc1cc(NC(=O)c2ccc(NS(=O)(=O)CCO)cc2N2CC[C@@]3(C(F)F)C[C@H]3C2)nc(N2CCC(F)(F)CC2)c1 [Example 48, 2-((1R,6S)-6-(difluoromethyl)-3-azabicyclo[4.1.0]heptan-3-yl)-N-(6-(4,4-difluoropiperidin-1-yl)-4-methylpyridin-2-yl)-4-((2-hydroxyethyl)sulfonamido)benzamide] | < 100 |
| < 100 | < 10 | 100 to 500 | Cc1cc(NC(=O)c2ccc(NS(C)(=O)=O)cc2N2CC[C@]3(C(F)F)C[C@@H]3C2)nc(N2CCC(F)(F)CC2)n1 [Example 54] | – |
| < 100 | ≥ 10 | 100 to 500 | Cc1cc(NC(=O)c2ccc(NS(=O)(=O)NCCO)cc2N2CC[C@]3(C(F)F)C[C@@H]3C2)nc(N2CCC(F)(F)CC2)n1 [Example 56] | – |
| < 100 | ≥ 10 | < 100 | Cc1cc(NC(=O)c2ccc(NS(=O)(=O)CCO)cc2N2CC[C@]3(C(F)F)C[C@@H]3C2)nc(N2CCC(F)(F)CC2)n1 [Example 58] | – |
| < 100 | ≥ 10 | < 100 | O=C(Nc1ccnc(N2CCC(F)(F)CC2)n1)c1ccc(NS(=O)(=O)CCO)cc1N1CC[C@]2(C(F)F)C[C@@H]2C1 [Example 60] | – |
| < 100 | < 10 | < 100 | O=C(Nc1cccc(N2CCC(F)(F)CC2)n1)c1ccc(NS(=O)(=O)CCO)cc1N1CC[C@@]2(C(F)F)C[C@H]2C1 [Example 66] | – |
| < 100 | ≥ 10 | < 100 | O=C(Nc1ccnc(N2CCC(F)(F)CC2)n1)c1c(F)cc(NS(=O)(=O)CCO)cc1N1CC[C@@]2(C(F)F)C[C@H]2C1 [Example 70] | – |
| < 100 | ≥ 10 | 100 to 500 | Cc1cc(NC(=O)c2c(F)cc(NS(=O)(=O)CCO)cc2N2CC[C@@]3(C(F)F)C[C@H]3C2)nc(N2CCC(F)(F)CC2)n1 [Example 72] | – |
| < 100 | < 10 | < 100 | O=C(Nc1ccnc(C2CCC(F)(F)CC2)n1)c1ccc(NS(=O)(=O)CCO)cc1N1CC[C@]2(C(F)F)C[C@@H]2C1 [Example 75] | – |
| < 100 | < 10 | 100 to 500 | Cc1cc(NC(=O)c2ccc(S(=O)(=O)NCCO)cc2N2CC[C@@]3(C(F)F)C[C@H]3C2)nc(N2CCC(F)(F)CC2)n1 [Example 78] | – |
| < 100 | < 10 | 100 to 500 | O=C(Nc1cccc(N2CCC(F)(F)CC2)n1)c1c(F)cc(NS(=O)(=O)CCO)cc1N1CC[C@@]2(C(F)F)C[C@H]2C1 [Example 84] | – |
